# Source: patent US11883526B2 (priority 2019, dated 2024)
# Where two headings read alike, the source gives them in different places.
# Tested on: subjects with MDD at imminent risk for suicide
# Conditions: 84 mg
# [1] = TEAE leading to study discontinuation, double-blind phase, N = 35
# [2] = TEAE, double-blind phase, N = 35
compound,measurement,setting,value
"CN[C@]1(c2ccccc2Cl)CCCCC1=O [esketamine, (S)-2-(2-chlorophenyl)-2-(methylamino)cyclohexanone]",subjects who discontinued the double-blind phase due to adverse events,,5 subjects
same,TEAE incidence: dissociation,double-blind phase,31.4%
same,TEAE incidence: dizziness,double-blind phase,34.3%
same,TEAE incidence: dysgeusia,double-blind phase,31.4%
same,TEAE incidence: headache,double-blind phase,31.4%
same,TEAE incidence: nausea,double-blind phase,37.1%
same,TEAE incidence: vomiting,double-blind phase,20.0%
same,subjects with a serious treatment-emergent adverse event,double-blind phase,Four
same,subjects with at least one TEAE,double-blind phase,94.3%
same,subjects with a serious adverse event,follow up phase,1 subjects
same,subjects with at least one adverse event,follow up phase,48.1%
same,"Withdrawn from double-blind phase: Adverse event, percent of subjects",all randomized analysis set,(13.9%)
same,"Withdrawn from double-blind phase: Adverse event, number of subjects","all randomized analysis set, N = 36",5
same,Aggression: % of subjects,[1],2.9%
same,Aggression: no. of subjects,[1],1
same,Agitation: % of subjects,[1],2.9%
same,Agitation: no. of subjects,[1],1
same,Cardiac disorders: % of subjects,[1],2.9%
same,Cardiac disorders: no. of subjects,[1],1
same,Dissociative disorder: no. of subjects,[1],0
same,Dizziness: % of subjects,[1],2.9%
same,Dizziness: no. of subjects,[1],1
same,Dysgeusia: % of subjects,[1],2.9%
same,Dysgeusia: no. of subjects,[1],1
same,Dyspnea: % of subjects,[1],2.9%
same,Dyspnea: no. of subjects,[1],1
same,Gastrointestinal disorders: % of subjects,[1],2.9%
same,Gastrointestinal disorders: no. of subjects,[1],1
same,Nausea: % of subjects,[1],2.9%
same,Nausea: no. of subjects,[1],1
same,Nervous system disorders: % of subjects,[1],5.7%
same,Nervous system disorders: no. of subjects,[1],2
same,Panic attack: no. of subjects,[1],0
same,Psychiatric disorders: % of subjects,[1],5.7%
same,Psychiatric disorders: no. of subjects,[1],2
same,"Respiratory, thoracic and mediastinal disorders: % of subjects",[1],2.9%
same,"Respiratory, thoracic and mediastinal disorders: no. of subjects",[1],1
same,Total no. subjects with TEAE leading to study discontinuation: % of subjects,[1],14.3%
same,Total no. subjects with TEAE leading to study discontinuation: no. of subjects,[1],5
same,Ventricular extrasystoles: % of subjects,[1],2.9%
same,Ventricular extrasystoles: no. of subjects,[1],1
same,Abdominal pain: no. of subjects,[2],0
same,Acne: % of subjects,[2],(5.7%)
same,Acne: no. of subjects,[2],2
same,Agitation: % of subjects,[2],(8.6%)
same,Agitation: no. of subjects,[2],3
same,Anxiety: % of subjects,[2],(17.1%)
same,Anxiety: no. of subjects,[2],6
same,Blepharospasm: no. of subjects,[2],0
same,Blood pressure increased: % of subjects,[2],(5.7%)
same,Blood pressure increased: no. of subjects,[2],2
same,Constipation: no. of subjects,[2],0
same,Diarrhea: % of subjects,[2],(8.6%)
same,Diarrhea: no. of subjects,[2],3
same,Diplopia: % of subjects,[2],(5.7%)
same,Diplopia: no. of subjects,[2],2
same,Dissociation: % of subjects,[2],(31.4%)
same,Dissociation: no. of subjects,[2],11
same,Dizziness postural: % of subjects,[2],(5.7%)
same,Dizziness postural: no. of subjects,[2],2
same,Dizziness: % of subjects,[2],(34.3%)
same,Dizziness: no. of subjects,[2],12
same,Dry mouth: % of subjects,[2],(8.6%)
same,Dry mouth: no. of subjects,[2],3
same,Dysgeusia: % of subjects,[2],(31.4%)
same,Dysgeusia: no. of subjects,[2],11
same,Ear and labyrinth disorders: % of subjects,[2],(25.7%)
same,Ear and labyrinth disorders: no. of subjects,[2],9
same,Epistaxis: no. of subjects,[2],0
same,Euphoric mood: % of subjects,[2],(11.4%)
same,Euphoric mood: no. of subjects,[2],4
same,Eye disorders: % of subjects,[2],(20.0%)
same,Eye disorders: no. of subjects,[2],7
same,Fatigue: % of subjects,[2],(5.7%)
same,Fatigue: no. of subjects,[2],2
same,Feeling abnormal: % of subjects,[2],(8.6%)
same,Feeling abnormal: no. of subjects,[2],3
same,Feeling cold: % of subjects,[2],(5.7%)
same,Feeling cold: no. of subjects,[2],2
same,Flatulence: % of subjects,[2],(2.9%)
same,Flatulence: no. of subjects,[2],1
same,Gastrointestinal disorders: % of subjects,[2],(54.3%)
same,Gastrointestinal disorders: no. of subjects,[2],19
same,General disorders and administration site conditions: % of subjects,[2],(28.6%)
same,General disorders and administration site conditions: no. of subjects,[2],10
same,Headache: % of subjects,[2],(31.4%)
same,Headache: no. of subjects,[2],11
same,Hyperacusis: % of subjects,[2],(5.7%)
same,Hyperacusis: no. of subjects,[2],2
same,Hyperhidrosis: % of subjects,[2],(5.7%)
same,Hyperhidrosis: no. of subjects,[2],2
same,Hypoesthesia oral: % of subjects,[2],(5.7%)
same,Hypoesthesia oral: no. of subjects,[2],2
same,Hypoesthesia: % of subjects,[2],(8.6%)
same,Hypoesthesia: no. of subjects,[2],3
same,Infections and infestations: % of subjects,[2],(2.9%)
same,Infections and infestations: no. of subjects,[2],1
same,Insomnia: % of subjects,[2],(8.6%)
same,Insomnia: no. of subjects,[2],3
same,Intranasal paranesthesia: no. of subjects,[2],0
same,Investigations: % of subjects,[2],(14.3%)
same,Investigations: no. of subjects,[2],5
same,Nasal congestion: % of subjects,[2],(2.9%)
same,Nasal congestion: no. of subjects,[2],1
same,Nasal discomfort: % of subjects,[2],(8.6%)
same,Nasal discomfort: no. of subjects,[2],3
same,Nausea: % of subjects,[2],(37.1%)
same,Nausea: no. of subjects,[2],13
same,Nervous system disorders: % of subjects,[2],(71.4%)
same,Nervous system disorders: no. of subjects,[2],25
same,Oropharyngeal pain: % of subjects,[2],(5.7%)
same,Oropharyngeal pain: no. of subjects,[2],2
same,Panic attack: no. of subjects,[2],0
same,Paresthesia oral: % of subjects,[2],(5.7%)
same,Paresthesia oral: no. of subjects,[2],2
same,Paresthesia: % of subjects,[2],(17.1%)
same,Paresthesia: no. of subjects,[2],6
same,Pharyngeal hypoesthesia: % of subjects,[2],(5.7%)
same,Pharyngeal hypoesthesia: no. of subjects,[2],2
same,Pollakiuria: no. of subjects,[2],0
same,Psychiatric disorders: % of subjects,[2],(57.1%)
same,Psychiatric disorders: no. of subjects,[2],20
same,Rash: % of subjects,[2],(2.9%)
same,Rash: no. of subjects,[2],1
same,Renal and urinary disorders: % of subjects,[2],(2.9%)
same,Renal and urinary disorders: no. of subjects,[2],1
same,"Respiratory, thoracic and mediastinal disorders: % of subjects",[2],(25.7%)
same,"Respiratory, thoracic and mediastinal disorders: no. of subjects",[2],9
same,Rhinalgia: no. of subjects,[2],0
same,Rhinorrhoea: no. of subjects,[2],0
same,Sedation: % of subjects,[2],(17.1%)
same,Sedation: no. of subjects,[2],6
same,Skin and subcutaneous tissue disorders: % of subjects,[2],(14.3%)
same,Skin and subcutaneous tissue disorders: no. of subjects,[2],5
same,Somnolence: % of subjects,[2],(11.4%)
same,Somnolence: no. of subjects,[2],4
same,Suicidal ideation: % of subjects,[2],(5.7%)
same,Suicidal ideation: no. of subjects,[2],2
same,Throat irritation: % of subjects,[2],(8.6%)
same,Throat irritation: no. of subjects,[2],3
same,Tinnitus: % of subjects,[2],(5.7%)
same,Tinnitus: no. of subjects,[2],2
same,Toothache: no. of subjects,[2],0
same,Total no. subjects with TEAE: % of subjects,[2],(94.3%)
same,Total no. subjects with TEAE: no. of subjects,[2],33
same,Upper respiratory tract infection: no. of subjects,[2],0
same,Vertigo: % of subjects,[2],(11.4%)
